Laboratory results taken from PubChem BioAssay (NCI).
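Protocol summary: plate cells (96-well), add compound at 5 concentrations, incubate 48 h, interpolate endpoints linearly. TGI: concentration producing complete growth inhibition.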

Experiments:
Assay in all cases: growth of human tumour cells (NCI), 48 h
UACC-62 melanoma = system: UACC-62 melanoma
SR leukemia = system: SR leukemia
HCT-15 colon = system: HCT-15 colon
OVCAR-5 ovarian = system: OVCAR-5 ovarian
OVCAR-4 ovarian = system: OVCAR-4 ovarian
SNB-75 CNS = system: SNB-75 CNS
SF-268 CNS = system: SF-268 CNS
MDA-N = system: MDA-N
NCI-H23 lung = system: NCI-H23 lung
HCT-116 colon = system: HCT-116 colon
MDA-MB-435 = system: MDA-MB-435
MOLT-4 leukemia = system: MOLT-4 leukemia
HCC-2998 colon = system: HCC-2998 colon
UO-31 renal = system: UO-31 renal
SF-539 CNS = system: SF-539 CNS
RPMI-8226 leukemia = system: RPMI-8226 leukemia
HT29 colon = system: HT29 colon
A549 NSCLC = system: A549 NSCLC
T-47D breast = system: T-47D breast
MALME-3M melanoma = system: MALME-3M melanoma
SNB-19 CNS = system: SNB-19 CNS
IGROV1 ovarian = system: IGROV1 ovarian
SW-620 colon = system: SW-620 colon
DU-145 prostate = system: DU-145 prostate
CCRF-CEM leukemia = system: CCRF-CEM leukemia
786-0 renal = system: 786-0 renal
SK-OV-3 ovarian = system: SK-OV-3 ovarian
OVCAR-3 ovarian = system: OVCAR-3 ovarian
UACC-257 melanoma = system: UACC-257 melanoma
MDA-MB-231 breast = system: MDA-MB-231 breast
MCF7 breast = system: MCF7 breast
NCI/ADR-RES ovarian = system: NCI/ADR-RES ovarian
EKVX NSCLC = system: EKVX NSCLC
PC-3 prostate = system: PC-3 prostate
NCI-H226 lung = system: NCI-H226 lung
KM12 colon = system: KM12 colon
SK-MEL-28 melanoma = system: SK-MEL-28 melanoma
SK-MEL-2 melanoma = system: SK-MEL-2 melanoma
RXF 393 renal = system: RXF 393 renal
OVCAR-8 ovarian = system: OVCAR-8 ovarian
A498 renal = system: A498 renal
U251 CNS = system: U251 CNS
LOX IMVI melanoma = system: LOX IMVI melanoma
HOP-92 NSCLC = system: HOP-92 NSCLC
SN12C renal = system: SN12C renal
ACHN renal = system: ACHN renal
M14 melanoma = system: M14 melanoma
HS 578T breast = system: HS 578T breast
COLO 205 colon = system: COLO 205 colon
TK-10 renal = system: TK-10 renal
SF-295 CNS = system: SF-295 CNS
NCI-H460 lung = system: NCI-H460 lung
HOP-62 NSCLC = system: HOP-62 NSCLC
CAKI-1 renal = system: CAKI-1 renal
K-562 leukemia = system: K-562 leukemia
SK-MEL-5 melanoma = system: SK-MEL-5 melanoma
NCI-H522 lung = system: NCI-H522 lung
HL-60(TB) leukemia = system: HL-60(TB) leukemia
BT-549 breast = system: BT-549 breast

Measured: TGI

CC(=O)OC1c2ccccc2CC2(OC(C)=O)c3ccccc3C12 (stereo unspecified)
not listed: SK-MEL-5 melanoma | NCI-H522 lung | HL-60(TB) leukemia | BT-549 breast
> 100 µM: all other assays above

CCOC(=O)/C(C)=C\[C@@]1(C)O[C@@H](C)[C@@](C)(OC(C)=O)[C@@H]1OC(C)=O
62.7 µM: NCI-H522 lung
60.2 µM: HCT-15 colon
59.8 µM: T-47D breast
77.1 µM: NCI-H23 lung
not listed: SNB-75 CNS | UO-31 renal | RXF 393 renal | BT-549 breast
> 100 µM: all other assays above

COc1ccc(OC)c2sc(N3C(=O)/C(=C/Cc4ccco4)N=C3c3ccccc3)nc12
80.5 µM: SK-MEL-5 melanoma
98.9 µM: HCT-116 colon
48.3 µM: MDA-N
37.9 µM: HL-60(TB) leukemia
80 µM: SN12C renal
67.3 µM: SK-MEL-2 melanoma
60.8 µM: MDA-MB-435
26.9 µM: CCRF-CEM leukemia
35.7 µM: MCF7 breast
57.8 µM: SNB-75 CNS
70 µM: LOX IMVI melanoma
73 µM: ACHN renal
71.5 µM: PC-3 prostate
79.8 µM: T-47D breast
80.8 µM: UO-31 renal
70.9 µM: MOLT-4 leukemia
54.1 µM: U251 CNS
51.1 µM: UACC-62 melanoma
43.9 µM: SR leukemia
not listed: NCI-H23 lung | MALME-3M melanoma | NCI-H226 lung | RXF 393 renal | NCI-H522 lung
> 100 µM: all other assays above

COc1ccc(C2c3cc4c(cc3C(O)C3CCC(=O)N23)OCO4)cc1 (stereo unspecified)
not listed: MDA-MB-231 breast | RXF 393 renal
> 100 µM: all other assays above
